Data published in US8865894B2, “Oxazolidin-2-one compounds and uses thereof” (Novartis AG, priority 2012, dated 2014).
Like-named read-outs stand apart in the source and are kept apart here.

Columns and labels:
human PI3Kα = molecular target: T1, human PI3Kα (Homo sapiens, UniProt P42336); test: Biochemical PI3Kalpha (KinaseGlo luminescent kinase assay)
T1 construct: made in house
Description: Test compounds were dissolved in DMSO (10 mM) and transferred into 1.4 mL flat bottom or V-shaped Matrix tubes carrying a unique 2D matrix chip by individual Novartis compound hubs. The numbers of these chips were distinctively linked to Novartis Pharma Numbers. The stock solutions were stored at −20° C. if not used immediately. For the test procedure the vials were defrosted and identified by a scanner whereby a working sheet was generated that guided the subsequent working steps.
Compounds were either manually diluted in DMSO for individual experiments (96 wells enabling 10 cpds at 8 (single points) concentrations) as described in or prepared as described below if tested for profiling in 384-wells. This format enabled the assay of maximally 40 individual test compounds at 8 concentrations (single points) including 4 reference compounds. The dilution protocol included the production of “pre-dilution plates”, “master plates” and “assay plates”.
96 polypropylene well plates were used as pre-dilution plates. A total of 4 pre-dilution plates were prepared including 10 test compounds each on the plate positions A1-A10, one standard compound at A11 and one DMSO control at A12. Programs have been written to run these pipetting steps on the HamiltonSTAR robots.
Identical “assay plates” were then prepared by pipetting 50 nL each of compound dilutions of the “master plates” into 384-well “assay plates”. The compounds were mixed with 4.5 μL of assays components plus 4.5 μL enzyme corresponding to a 1:181 dilution enabling the final concentration of 10, 3.0, 1.0, 0.3, 0.1, 0.03, 0.01 and 0.003 μM, respectively. The preparation of the “master plates” was handled by the Matrix PlateMate Plus robot and replication of “assay plates” by the HummingBird robot.
Catalytically active human PI3Kα, PI3Kβ, PI3Kδ, and mTOR were cloned, expressed and purified as described (Maira S M, Stauffer F, Brueggen J, Furet P, Schnell C, Fritsch C, Brachmann S, Chène P, de Pover A, Schoemaker K, Fabbro D, Gabriel D, Simonen M, Murphy L, Finan P, Sellers W, García-Echeverría C (2008), Mol Cancer Ther. 7:1851-63 and Maira S M, Pecchi S, Brueggen J, Huh K, Schnell C, Fritsch C, Nagel T, Wiesmann M, Brachmann S, Dorsch M, Chène P, Schoemaker K, De Pover A, Menezes D, Fabbro D, Sellers W, García-Echeverría C, Voliva C F (2011), Mol. Cancer Ther. accepted).
The luminescence-based ATP detection reagent KinaseGlo was obtained from Promega, (Cat. No. V6714, Lot No. 236161) through Catalys, Wallisellen, Switzerland. (L-alpha-phosphatidylinositol (PI), Liver, Bovine) were obtained from Avanti Polar Lipid (Cat. No. 840042C, Lot#LPI-274), Phosphatidylinositol-4,5-bisphosphate (PIP(4,5)2 (Avanti, Cat. No. 840046×) or L-α-phosphatidylinositol (PI) was obtained from Avanti Polar Lipid (Cat. No. 840042C, Lot#LPI-274). L-α-Phosphatidylserine (PS) was from Avanti Polar Lipid (Cat. No. 840032C), n-OctylGlucoside Avanti Polar Lipid (Cat. No. 10634425001). Luminescence is a well established readout to determine ATP concentrations and can thus be used to follow the activity of many kinases regardless of their substrate. The Kinase Glo Luminescent Kinase Assay (Promega, Madison/Wis., USA) is a homogeneous HTS method of measuring kinase activity by quantifying the amount of ATP remaining in solution following a kinase reaction.
50 nL of compound dilutions were dispensed onto black 384-well low volume Non Binding Styrene (NBS) plates (Costar Cat. No. NBS#3676) as described in section 8.2. L-α-phosphatidylinositol (PI), provided as 10 mg/ml solution in methanol, was transferred into a glass tube and dried under nitrogen beam. It was then resuspended in 3% OctylGlucoside by vortexing and stored at 4° C. 5 μL of a mix of PI/OG with the PI3Ka and Pi3Kb subtypes were added. Kinase reactions were started by addition of 5 μl of ATP-mix containing in a final volume 10 μL 10 mM TRIS-HCl pH 7.5, 3 mM MgCl2, 50 mM NaCl, 0.05% CHAPS, 1 mM DTT and 1 μM ATP, and occurred at room temperature.

A2058 cells = test: Cell cycle G2/M arrest Cytospin assay to detect tubulin binding (off-target); format: cell-based; parameters: key: 0=no condensed DNA observed (indicating no off target activity); 1=(indicating weak off target activity); 2=(indicating medium off target activity); 3=large amount of condensed DNA observed (indicating strong off-target activity); conditions: 5 μM test item, 24 hours
Description: The off-target effect (evidence of tubulin binding) was measured as follows.
Cell cycle G2/M arrest Cytospin assay to detect tubulin binding (off-target) binding activities of MAPP derivatives: 5×10^5 cells A2058 cells were plated in 6-well cluster, with 2 mL of DMEM (high Glucose containing 1% sodium pyruvate, 1% glutamin and 10% FCS). 18 hours later, the test items were added at a concentration of 5 μM (spiking 1 μL of a 10 mM solution of the test item). 24 hours later, the cells were trypsinized and transferred into a 15 mL conical tube. Cells are then pelleted by centrifugation, and resuspended with PBS/0 (containing 10% FCS). Cells are counted with a CASY counter, and each samples equilibrated to 1×10^6 cells/mL. […] The staining was visually assessed for the presence of condensed DNA and given a score where 0=no condensed DNA observed (indicating no off target activity), 1=(indicating weak off target activity), 2=(indicating medium off target activity), 3=large amount of condensed DNA observed (indicating strong off-target activity).

[1] = a different, separate measurement, read-out: PI3Ka IC50, different, separate measurement (footnote)
[2] = biochemical, 1 μM ATP, mean of n measurements, read-out: PI3Ka/ IC50
[3] = biochemical, 1 μM ATP, mean of n measurements

T1 sequence (P42336 with tags, fused parts or gaps limits assumed): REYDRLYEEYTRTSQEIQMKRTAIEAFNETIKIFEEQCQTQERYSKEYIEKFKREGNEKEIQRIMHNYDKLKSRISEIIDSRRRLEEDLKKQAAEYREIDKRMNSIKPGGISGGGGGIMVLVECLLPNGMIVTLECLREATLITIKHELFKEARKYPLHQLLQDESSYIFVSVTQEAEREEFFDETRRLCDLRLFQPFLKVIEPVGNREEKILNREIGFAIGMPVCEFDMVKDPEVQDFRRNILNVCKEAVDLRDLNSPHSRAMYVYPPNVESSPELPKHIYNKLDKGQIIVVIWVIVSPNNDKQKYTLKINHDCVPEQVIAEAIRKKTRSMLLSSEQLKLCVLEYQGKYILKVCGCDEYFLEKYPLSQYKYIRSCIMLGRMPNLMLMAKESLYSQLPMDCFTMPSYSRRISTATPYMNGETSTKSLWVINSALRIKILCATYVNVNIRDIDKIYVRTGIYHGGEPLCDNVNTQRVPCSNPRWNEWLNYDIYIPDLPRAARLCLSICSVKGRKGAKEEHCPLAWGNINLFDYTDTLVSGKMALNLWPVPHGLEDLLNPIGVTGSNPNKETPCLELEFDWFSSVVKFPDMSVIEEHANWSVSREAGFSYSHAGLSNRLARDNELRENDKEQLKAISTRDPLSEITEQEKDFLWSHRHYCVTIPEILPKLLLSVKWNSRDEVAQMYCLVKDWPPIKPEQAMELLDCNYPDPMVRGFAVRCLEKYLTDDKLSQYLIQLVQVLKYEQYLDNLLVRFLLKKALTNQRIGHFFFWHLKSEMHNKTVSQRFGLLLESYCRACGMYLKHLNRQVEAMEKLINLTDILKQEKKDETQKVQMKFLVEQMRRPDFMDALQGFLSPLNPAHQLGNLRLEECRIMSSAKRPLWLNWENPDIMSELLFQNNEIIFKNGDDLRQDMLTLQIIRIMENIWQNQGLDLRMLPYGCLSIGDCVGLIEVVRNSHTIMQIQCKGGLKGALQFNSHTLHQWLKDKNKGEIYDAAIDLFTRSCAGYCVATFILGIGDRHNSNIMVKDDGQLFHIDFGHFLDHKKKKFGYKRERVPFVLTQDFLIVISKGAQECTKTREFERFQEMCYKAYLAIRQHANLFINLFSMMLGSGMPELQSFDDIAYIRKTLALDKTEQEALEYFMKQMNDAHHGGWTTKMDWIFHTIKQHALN

SMILES	IC50 (human PI3Kα; [1]) [nM]	IC50 (human PI3Kα; [2]) [nM]	Score (condensed DNA, G2/M arrest; off-target tubulin binding) (A2058 cells)	PI3Ka/ IC50 (human PI3Kα; [3]) [umol I-1]
C[C@H]1C(CC(C)(C)O)OC(=O)N1c1cc(-c2cnc(N)nc2C(F)(F)F)nc(N2CCOCC2)n1 (mixture of isomers) [Example 26, (4S,5R)- and (4S,5S)-3-(2′-amino-2-morpholino-4′-(trifluoromethyl)-[4,5′-bipyrimidin]-6-yl)-5-(2-hydroxy-2-methylpropyl)-4-methyloxazolidin-2-one]	< 3	5	0	–
C[C@@H](O)C[C@H]1OC(=O)N(c2cc(-c3cnc(N)nc3C(F)(F)F)nc(N3CCOCC3)n2)[C@H]1C (single isomer, unassigned) [Example 24]	–	5	0	–
C[C@H](O)CC1OC(=O)N(c2cc(-c3cnc(N)nc3C(F)(F)F)nc(N3CCOCC3)n2)[C@H]1C (single isomer, unassigned) [Example 25]	< 3	5	0	–
CC1(C)OC(=O)N(c2cc(-c3cnc(N)nc3C(F)(F)F)nc(N3CCOCC3)n2)[C@H]1CO [Example 2, (S)-3-(2′-Amino-2-morpholin-4-yl-4′-trifluoromethyl-[4,5′]bipyrimidinyl-6-yl)-4-hydroxymethyl-5,5-dimethyl-oxazolidin-2-one]	–	–	–	0.023
Nc1ncc(-c2cc(N3C(=O)O[C@H]4CCCC[C@@H]43)nc(N3CCOCC3)n2)c(C(F)(F)F)n1 [Example 4, (3aS,7aS)-3-(2′-Amino-2-morpholin-4-yl-4′-trifluoromethyl-[4,5′]bipyrimidinyl-6-yl)-hexahydro-benzooxazol-2-one]	–	–	0	0.014
C[C@@H]1OC(=O)N(c2cc(-c3cnc(N)nc3C(F)(F)F)nc(N3CCOCC3)n2)[C@H]1CO [Example 6]	–	–	0	0.013
[2H]C1([2H])OC([2H])([2H])C([2H])([2H])N(c2nc(-c3cnc(N)nc3C(F)(F)F)cc(N3C(=O)O[C@H](C)[C@@H]3CO)n2)C1([2H])[2H] [Example 8]	–	–	0	0.013
C[C@H]1OC(=O)N(c2cc(-c3cnc(N)nc3C(F)(F)F)nc(N3CCOC[C@@H]3C)n2)[C@H]1CO [Example 10, (4S,5R)-3-[2′-Amino-2-((S)-3-methyl-morpholin-4-yl)-4′-trifluoromethyl-[4,5′]bipyrimidinyl-6-yl]-4-hydroxymethyl-5-methyl-oxazolidin-2-one]	–	–	0	0.008
C[C@H]1OC(=O)N(c2cc(-c3cnc(N)nc3C(F)(F)F)nc(N3CCOCC3)n2)[C@H]1COC=O [Example 12, Formic acid (4S,5R)-3-(2′-amino-2-morpholin-4-yl-4′-trifluoromethyl-[4,5′]bipyrimidinyl-6-yl)-5-methyl-2-oxo-oxazolidin-4-ylmethyl ester]	–	–	0	0.030
C[C@H]1COCCN1c1nc(-c2cnc(N)nc2C(F)(F)F)cc(N2C(=O)OC[C@@H]2C)n1 [Example 13, (S)-3-[2′-Amino-2-((S)-3-methyl-morpholin-4-yl)-4′-trifluoromethyl-[4,5′]bipyrimidinyl-6-yl]-4-methyl-oxazolidin-2-one]	–	–	0	0.203

The next lines start with the values.

IC50 (human PI3Kα; [1]) [nM]	IC50 (human PI3Kα; [2]) [nM]	Score (condensed DNA, G2/M arrest; off-target tubulin binding) (A2058 cells)	PI3Ka/ IC50 (human PI3Kα; [3]) [umol I-1]	SMILES
–	–	0	0.021	CC1(CO)COC(=O)N1c1cc(-c2cnc(N)nc2C(F)(F)F)nc(N2CCOCC2)n1 (racemic) [Example 3, 3-(2′-amino-2-morpholino-4′-(trifluoromethyl)-4,5′-bipyrimidin-6-yl)-4-(hydroxymethyl)-4-methyloxazolidin-2-one]
–	6	0	–	Nc1ncc(-c2cc(N3C(=O)O[C@@H]4[C@@H](O)CC[C@@H]43)nc(N3CCOCC3)n2)c(C(F)(F)F)n1 (racemic) [Example 22, (3aR*,6R*,6aR*)-3-(2′-Amino-2-morpholino-4′-(trifluoromethyl)-[4,5′-bipyrimidin]-6-yl)-6-hydroxyhexahydro-2H-cyclopenta[d]oxazol-2-one]
–	7	–	–	Nc1ncc(-c2cc(N3C(=O)OC4C(O)CCC43)nc(N3CCOCC3)n2)c(C(F)(F)F)n1 (single isomer, unassigned) [Example 22A]
–	26	–	–	Nc1ncc(-c2cc(N3C(=O)OC4C(O)CCC43)nc(N3CCOCC3)n2)c(C(F)(F)F)n1 (single isomer, unassigned) [Example 22B]
–	–	0	0.008	C[C@H]1COC(=O)N1c1cc(-c2cnc(N)nc2C(F)(F)F)nc(N2CCOCC2)n1 [Example 1, (S)-3-(2′-Amino-2-morpholin-4-yl-4′-trifluoromethyl-[4,5′]bipyrimidinyl-6-yl)-4-methyl-oxazolidin-2-one]
–	–	0	0.011	COC[C@H]1COC(=O)N1c1cc(-c2cnc(N)nc2C(F)(F)F)nc(N2CCOCC2)n1 [Example 5, (S)-3-(2′-Amino-2-morpholin-4-yl-4′-trifluoromethyl-[4,5′]bipyrimidinyl-6-yl)-4-methoxymethyl-oxazolidin-2-one]
–	–	–	0.384	Nc1ncc(-c2cc(N3C(=O)OC[C@@H]3CCO)nc(N3CCOCC3)n2)c(C(F)(F)F)n1 [Example 9, (S)-3-(2′-Amino-2-morpholin-4-yl-4′-trifluoromethyl-[4,5′]bipyrimidinyl-6-yl)-4-(2-hydroxy-ethyl)-oxazolidin-2-one]
–	–	3	0.038	Nc1ncc(-c2cc(N3CCOC3=O)nc(N3CCOCC3)n2)c(C(F)(F)F)n1 [Example 11, 3-(2′-Amino-2-morpholin-4-yl-4′-trifluoromethyl-[4,5′]bipyrimidinyl-6-yl)-oxazolidin-2-one, reference compound]
–	–	0	0.057	Nc1ncc(-c2cc(N3C[C@@H](CO)OC3=O)nc(N3CCOCC3)n2)c(C(F)(F)F)n1 [Example 14, (S)-3-(2′-Amino-2-morpholin-4-yl-4′-trifluoromethyl-[4,5′]bipyrimidinyl-6-yl)-5-hydroxymethyl-oxazolidin-2-one]
